Results published in patent publication US6482921B1, “Uridyl peptide antibiotic (UPA) derivatives, their synthesis and use” (Essential Therapeutics, Inc., priority 1999, dated 2002).
In brackets after ≈: the same amount, converted by molar mass.

Key:
[1] = system: Staphylococcus aureus ATCC 29213; test: MIC broth microdilution, S. aureus ATCC 29213 (wild type); assay type: cell-based; details: for MIC (μg/ml) Broth microdilution: S. aureus ATCC 29213
Escherichia Coli MC 4100 = test: MIC broth microdilution, E. coli MC 4100 (wild type); assay type: cell-based; details: for MIC (μg/ml) Broth microdilution: E. coli MC 4100
[2] = system: Pseudomonas aeruginosa PAM 1135; test: MIC broth microdilution, P. aeruginosa PAM 1135 (high level UPA resistance); assay type: cell-based; details: for MIC (μg/ml) Broth microdilution: P. aeruginosa PAM 1135 UPA1^r
[3] = system: Staphylococcus aureus 8325-4; test: MIC broth microdilution, S. aureus 8325-4 (wild type); assay type: cell-based; details: for MIC (μg/ml) Broth microdilution: S. aureus 8325-4
[4] = system: Escherichia Coli MC 4100 AcrAB UPA3r; test: MIC broth microdilution, E. coli MC 4100 AcrAB UPA3r (ΔAcrAB, UPA resistant); assay type: cell-based; details: for MIC (μg/ml) Broth microdilution: E. coli AcrAB UPA3^r
[5] = system: Pseudomonas aeruginosa PAM 1020; test: MIC broth microdilution, P. aeruginosa PAM 1020 (wild type); assay type: cell-based; details: for MIC (μg/ml) Broth microdilution: P. aeruginosa PAM 1020
[6] = system: Pseudomonas aeruginosa PAM 1154; test: MIC broth microdilution, P. aeruginosa PAM 1154 (OprM::Hg); assay type: cell-based; details: for MIC (μg/ml) Broth microdilution: P. aeruginosa PAM 1154 OprM::Hg
bacteria = test: Antibacterial activity, stated in words; assay type: cell-based
[7] = system: Escherichia Coli MC 4100 AcrAB; test: MIC broth microdilution, E. coli MC 4100 AcrAB (ΔAcrAB); assay type: cell-based; details: for MIC (μg/ml) Broth microdilution: E. coli AcrAB
[8] = system: Mycobacterium tuberculosis H37Rv; test: MIC agar dilution, M. tuberculosis H37Rv; assay type: cell-based
[9] = system: Mycobacterium fortuitum ATCC 6841; test: MIC broth microdilution, M. fortuitum ATCC 6841; details: 72 hours at 35° C., CAMHB
[10] = system: Pasteurella multocida pm002; test: MIC broth microdilution, P. multocida pm002 (wild type); assay type: cell-based
[11] = system: Mycobacterium smegmatis ATCC 19420; test: MIC broth microdilution, M. smegmatis ATCC 19420; details: 72 hours at 35° C., CAMHB
[12] = system: Pseudomonas aeruginosa PAM 1323; test: MIC broth microdilution, P. aeruginosa PAM 1323 (medium level UPA resistance); assay type: cell-based
[13] = system: Mycobacterium tuberculosis TN913; test: MIC agar dilution, M. tuberculosis TN913; assay type: cell-based

SMILES	MIC H37RV (SENSITIVE) [8] [µg/mL]	MIC Broth microdilution M. fortuitum ATCC 6841 [9] [µg/mL]	MIC (μg/ml) Broth microdilution [1] [µg/mL]	MIC (μg/ml) Broth microdilution (Escherichia Coli MC 4100) [µg/mL]	MIC (μg/ml) Broth microdilution [2] [µg/mL]	MIC (μg/ml) Broth microdilution [10] [µg/mL]	MIC (μg/ml) Broth microdilution [3] [µg/mL]	MIC (μg/ml) Broth microdilution [4] [µg/mL]	MIC Broth microdilution M. smegmatis ATCC19420 [11] [µg/mL]	MIC (μg/ml) Broth microdilution [5] [µg/mL]	MIC (μg/ml) Broth microdilution [6] [µg/mL]	MIC (μg/ml) Broth microdilution [7] [µg/mL]	MIC (μg/ml) Broth microdilution [12] [µg/mL]	MIC TN913 (SENSITIVE) [13] [µg/mL]	also measured
C[C@H](N)C(=O)N(C)[C@@H](C)[C@H](NC(=O)[C@H](C)NC(=O)N[C@@H](Cc1c[nH]c2ccccc12)C(=O)O)C(=O)NC[C@H]1C[C@@H](O)[C@H](n2ccc(=O)[nH]c2=O)O1 [Compound 34]															MIC ([1]; Staphylococcus aureus, ATCC29213, read-out: MIC (μg/ml) Broth microdilution): 512 µg/mL (≈ 717 µM); MIC (Escherichia Coli MC 4100; Escherichia coli, COLIMC4100, read-out: MIC (μg/ml) Broth microdilution): 128 µg/mL (≈ 179 µM); MIC ([2]; Pseudomonas aeruginosa, PAM1135, read-out: MIC (μg/ml) Broth microdilution): > 512 µg/mL; MIC ([3]; Staphylococcus aureus, 83254, read-out: MIC (μg/ml) Broth microdilution): > 512 µg/mL; MIC ([4]; Escherichia coli, read-out: MIC (μg/ml) Broth microdilution): 16 µg/mL (≈ 22.4 µM); MIC ([5]; Pseudomonas aeruginosa, PAM1020, read-out: MIC (μg/ml) Broth microdilution): 64 µg/mL (≈ 89.7 µM); MIC ([6]; Pseudomonas aeruginosa, PAM1154, read-out: MIC (μg/ml) Broth microdilution): 4 µg/mL (≈ 5.6 µM); antibacterial / biological activity (in words) (bacteria): comparable biological activity to dihydropacidamycin D; MIC ([7]; Escherichia coli, COLIMC4100ACRAB, read-out: MIC (μg/ml) Broth microdilution): 2 µg/mL (≈ 2.8 µM)
CC(N)C(=O)N(C)C(C)C(NC(=O)C(Cc1ccccc1)NC(=O)NC(Cc1ccc2ccccc2c1)C(=O)O)C(=O)NCC1CC(O)C(n2ccc(=O)[nH]c2=O)O1 [Compound 133, 1-[5′-[(2S,3S)-N^3-L-Alanyl-N^2-[N-[[(1S)-1-carboxy-2-naphthalenethyl]carbamoyl]-L-phenylalanyl]-N^3-methyl-2,3-diaminobutyramido]-3′,5′-dideoxy-α-L-arabinofuranosyl]uracil]	30 (≈ 37.5 µM)	32 (≈ 40 µM)	256 (≈ 320 µM)	256 (≈ 320 µM)	>512	256 (≈ 320 µM)	128 (≈ 160 µM)	32 (≈ 40 µM)	8 (≈ 9.99 µM)	64 (≈ 79.9 µM)	32 (≈ 40 µM)	<1	>512	30 (≈ 37.5 µM)	
CC(N)C(=O)N(C)C(C)C(NC(=O)C(Cc1ccc(C(F)(F)F)cc1)NC(=O)NC(Cc1c[nH]c2ccccc12)C(=O)O)C(=O)NCC1CC(O)C(n2ccc(=O)[nH]c2=O)O1 [Compound 146, 1-[5′-[(2S,3S)-N^3-L-Alanyl-N^2-[N-[[(1S)-1-carboxy-2-indol-3-ylethyl]carbamoyl]-L-4-(trifluoromethyl)phenylalanyl]-N^3-methyl-2,3-diaminobutyramido]-3′,5′-dideoxy-α-L-arabinofuranosyl]uracil]	10 (≈ 11.7 µM)		512 (≈ 597 µM)	512 (≈ 597 µM)	>512	64 (≈ 74.6 µM)	256 (≈ 298 µM)	64 (≈ 74.6 µM)		256 (≈ 298 µM)	32 (≈ 37.3 µM)	2 (≈ 2.33 µM)	>512	10 (≈ 11.7 µM)	
CC(N)C(=O)N(C)C(C)C(NC(=O)C(Cc1ccc(-c2ccccc2)cc1)NC(=O)NC(Cc1c[nH]c2ccccc12)C(=O)O)C(=O)NCC1CC(O)C(n2ccc(=O)[nH]c2=O)O1 [Compound 155, 1-[5′-[(2S,3S)-N^3-L-Alanyl-N^2-[N-[[(1S)-1-carboxy-2-indol-3-ylethyl)carbamoyl]-L-4-biphenylalanyl]-N^3-methyl-2,3-diaminobutyramidol-3′,5′-dideoxy-α-L-arabinofuranosyl]uracil]	10 (≈ 11.5 µM)	32 (≈ 37 µM)	>512	512 (≈ 591 µM)	512 (≈ 591 µM)	32 (≈ 37 µM)	512 (≈ 591 µM)	512 (≈ 591 µM)	4 (≈ 4.62 µM)	256 (≈ 296 µM)	64 (≈ 73.9 µM)	8 (≈ 9.24 µM)	256 (≈ 296 µM)	10 (≈ 11.5 µM)	
CC(N)C(=O)N(C)C(C)C(NC(=O)C(Cc1ccc(F)cc1)NC(=O)NC(Cc1ccc(O)cc1)C(=O)O)C(=O)NCC1CC(O)C(n2ccc(=O)[nH]c2=O)O1 [Compound 157, 1-[5′-[(2S,3S)-N^3-L-Alanyl-N^2-[N-[[(1S)-1-carboxy-4-hydroxyphenethyl]carbamoyl]-L-4-fluorophenylalanyl]-N^3-methyl-2,3-diaminobutyramido]-3′,5′-dideoxy-α-L-arabinofuranosyl]uracil]	10 (≈ 12.7 µM)		>512	4 (≈ 5.1 µM)	>512	256 (≈ 326 µM)	512 (≈ 652 µM)	<1		128 (≈ 163 µM)	16 (≈ 20.4 µM)	<1	>512	10 (≈ 12.7 µM)	
